# Molecular target: γ-secretase (Homo sapiens, UniProt P49768)
# Assay: Screening for γ-secretase-modulating activity in SKNBE2 cells carrying APP 695 wild type
# Type: cell-based
# Conditions: SKNBE2 cells carrying the APP 695 wild type
# Description: Screening of the Compounds of the Invention for γ-Secretase-modulating Activity Screening was carried out using SKNBE2 cells carrying the APP 695—wild type, grown in DMEM/NUT-mix F12 (HAM) provided by Gibco (cat no. 31330-38) containing 5% Serum/Fe supplemented with 1% non-essential amino acids. Cells were grown to near confluency. The screening was performed using the assay as described in Citron et al (1997) Nature Medicine 3: 67.
row,Compound,inhibition at 1 µM [%]
1,"CC(C)CC(C(=O)O)c1cc(NC(=O)c2cc(C(F)(F)F)cc(C(F)(F)F)c2)cc(-c2ccc(C(F)(F)F)cc2)c1 (centres unmarked) [Compound 3, 2-[5-(3,5-Bis-trifluoromethyl-benzoylamino)-4′-trifluoromethyl-biphenyl-3-yl]-4-methyl-pentanoic acid]",24
2,"CC(C)CC(C(=O)O)c1cc(NC(=O)c2cc(F)cc(F)c2)cc(-c2ccc(C(F)(F)F)cc2)c1 (centres unmarked) [Compound 4, 2-[5-(3,5-Difluoro-benzoylamino)-4′-trifluoromethyl-biphenyl-3-yl]-4-methyl-pentanoic acid]",34

# Reference: patent US7951843B2, “Amide linked modulators of γ-secretase” (Janssen Pharmaceutica N.V., priority 2007, dated 2011)
